The target of assay [1] is T1, Fucose-binding lectin PA-IIL (Pseudomonas aeruginosa (strain ATCC 15692 / DSM 22644 / CIP 104116 / JCM 14847 / LMG 12228 / 1C / PRS 101 / PAO1), UniProt Q9HYN5).
The target in assay [2] is T1, Fucose-binding lectin PA-IIL. The source holds these as a separate data set.

T1 sequence (Q9HYN5 whole entry): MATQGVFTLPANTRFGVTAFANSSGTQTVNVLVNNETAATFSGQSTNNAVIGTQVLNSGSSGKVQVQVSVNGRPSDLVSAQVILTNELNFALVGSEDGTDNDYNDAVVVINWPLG

By IC50 is commonly meant the point on the concentration scale where inhibition reaches its midpoint. Read a low IC50 as inhibition by little substance. `COC1O[C@H](CNC(C)=O)[C@@H](O)C(O)[C@@H]1O` (some centres not stated) [LecB Inhibitor Amides 4a] showed a 50% inhibitory concentration (IC50) in assay [1] of 281 µM. Same read-out and setting: as for `COC1O[C@H](CNC(=O)c2ccc([N+](=O)O)cc2)[C@@H](O)C(O)[C@@H]1O` (some centres not stated) [LecB Inhibitor Amides 4c], the figure is 75.8 µM; as for `COC1O[C@H](CNC(=O)c2cc([N+](=O)O)cc([N+](=O)O)c2)[C@@H](O)C(O)[C@@H]1O` (some centres not stated) [LecB Inhibitor Amides 4d], 121 µM; as for `COC1O[C@H](CNC(=O)Cc2ccccc2)[C@@H](O)C(O)[C@@H]1O` (some centres not stated) [LecB Inhibitor Amides 4e], 73.8 µM. `COC1O[C@H](CNC(=O)C(c2ccccc2)c2ccccc2)[C@@H](O)C(O)[C@@H]1O` (some centres not stated) [LecB Inhibitor Amides 4f]: the 50% inhibitory concentration (IC50) in assay [1] turned out to be 161 µM. Still for that read-out and setting: with `COC1O[C@H](CNCc2ccccc2)[C@@H](O)C(O)[C@@H]1O` (some centres not stated) [LecB Inhibitor Amines 3a] the figure was 227 µM; with `COC1O[C@H](CNCc2ccc([N+](=O)O)cc2)[C@@H](O)C(O)[C@@H]1O` (some centres not stated) [LecB Inhibitor Amines 3b], 117 µM.

Regarding `COC1O[C@H](CNCc2ccc(C#N)cc2)[C@@H](O)C(O)[C@@H]1O` (some centres not stated) [LecB Inhibitor Amines 3c], in assay [1], the half-inhibitory concentration (IC50) amounted to 115 µM. On to `COC1O[C@H](CNCc2ccc(Cl)cc2)[C@@H](O)C(O)[C@@H]1O` (some centres not stated) [LecB Inhibitor Amines 3d], for which, in assay [1], the IC50 came out at 212 µM. Still for that read-out and setting: with `COC1O[C@H](CN)[C@@H](O)C(O)[C@@H]1O` (some centres not stated) [LecB Inhibitor Amines 3e] the figure was 353 µM.

The EC50 is the concentration that produces a half-maximal response. Read a high EC50 as weaker potency. Turning to `CC1O[C@@H](OCCNC(=S)Nc2ccc(-c3c4ccc(=O)cc-4oc4cc(O)ccc34)c(C(=O)O)c2)[C@@H](O)C(O)[C@@H]1O` (some centres not stated) [LecB Inhibitor Ligand 6], the IC50 in assay [1] was determined as 2.74 µM. In assay [2], the concentration giving a half-maximal response (EC50) came to 0.697 µM. With `COC1O[C@H](CNS(=O)(=O)c2ccc(C)cc2)[C@@H](O)C(O)[C@@H]1O` (some centres not stated) [LecB Inhibitor Sulfonamides 5b], the IC50 in assay [1] was 49.7 µM.

The compound `COC1O[C@H](CNS(=O)(=O)c2ccc(Br)cc2)[C@@H](O)C(O)[C@@H]1O` (some centres not stated) [LecB Inhibitor Sulfonamides 5c] returned an IC50 in assay [1] of 20.9 µM.

As to `COC1O[C@H](CNS(=O)(=O)c2ccc([N+](=O)O)cc2)[C@@H](O)C(O)[C@@H]1O` (some centres not stated) [LecB Inhibitor Sulfonamides 5d], the IC50 in assay [1] was determined as 36.1 µM. On the same count and under the same terms, as for `COC1O[C@H](CNS(=O)(=O)/C=C/c2ccccc2)[C@@H](O)C(O)[C@@H]1O` (some centres not stated) [LecB Inhibitor Sulfonamides 5g], the figure is 86.9 µM; as for `COC1O[C@H](Cn2cc(CO)nn2)[C@@H](O)C(O)[C@@H]1O` (some centres not stated) [LecB Inhibitor Triazoles 2a], 578 µM. On to `COC1O[C@H](Cn2cc(CCc3ccccc3)nn2)[C@@H](O)C(O)[C@@H]1O` (some centres not stated) [LecB Inhibitor Triazoles 2b], for which the concentration for half-maximal inhibition (IC50) in assay [1] amounted to 264 µM. As for `COC1O[C@H](Cn2cc(-c3ccccc3)nn2)[C@@H](O)C(O)[C@@H]1O` (some centres not stated) [LecB Inhibitor Triazoles 2c], in assay [1], the IC50 was 373 µM. In the case of `COC1O[C@H](Cn2cc(-c3cccc(C)c3)nn2)[C@@H](O)C(O)[C@@H]1O` (some centres not stated) [LecB Inhibitor Triazoles 2d], in assay [1], the half-maximal inhibitory concentration (IC50) was 279 µM. Still for that read-out and setting: with `COC1O[C@H](Cn2cc(-c3ccc(C)cc3)nn2)[C@@H](O)C(O)[C@@H]1O` (some centres not stated) [LecB Inhibitor Triazoles 2e] the figure was 294 µM. As for `COC1O[C@H](Cn2cc(-c3ccc(F)cc3)nn2)[C@@H](O)C(O)[C@@H]1O` (some centres not stated) [LecB Inhibitor Triazoles 2g], the IC50 in assay [1] stood at 240 µM.

These data come from BindingDB's records for doi:10.1021/cb400371r (University of Konstanz, 2013).
